Source: publication PMC12366525, “Characterization of allosteric modulators that disrupt androgen receptor co-activator protein-protein interactions to alter transactivation–Drug leads for metastatic castration resistant prostate cancer” (SLAS discovery : advancing life sciences R & D, 2023)
Where “and” joins values, the source holds several entries; their conditions need not be identical. Equal entries are not always repeated.

How the values were obtained:
PSA [1] = assay: Dot blot of PSA secretion by C4–2 cells; type: cell-based, human; conditions: C4–2 cells; 10 nM DHT 24 h
Experimental: To determine PSA secretion levels, C4–2 cells were seeded at 1.4 × 10 [5] cells/well in 12-well plates and treated as described above for PSA cell expression experiments. […] 500 μL of conditioned media supernatant was added to the wells of 96-well to Bio-blot apparatus (BioRad, Hercules, CA) containing a nitrocellulose membrane and was allowed to pass through and attach to the membrane under gravity for 3–4 h at room temperature. The membrane was washed 1x with 500 μL TBS under vacuum, blocked with 1% BSA in TBST for 1 h, and then incubated overnight at 4 °C with the primary rabbit anti-hPSA antibody (Cell Signaling, Danvers, MA) diluted 1:1000 in TBST plus 1% BSA. Dot blots were washed 3x in 10 mL of TBST for 10 min, then incubated for 1 h with secondary goat anti-rabbit-IgG HRP conjugated antibody (Invitrogen, Carlsbad, CA) diluted 1:10,000 in TBST plus 1% Bovine Serum Albumin (BSA), washed 3x with 10 mL of TBST for 10 min, and then developed with Pierce ECL western blotting substrate. Images of ECL dot blots were acquired on an iBright 1500 imaging system and quantified by iBright image analysis software.

PSA [2] = assay: Western blot of PSA expression in C4–2 cells; type: cell-based, human; conditions: C4–2 cells
Experimental: Cell lysate protein concentrations were determined in a bicinchoninic acid (BCA) assay. Equal amounts of cell protein were mixed with SDS-PAGE sample buffer and placed in a heat block at 100 °C for 5 min. The protein constituents of C4–2 cells were separated by SDS-PAGE on 10% separating gels, transferred to nitrocellulose membranes and western blots were probed overnight at 4 °C with a 1:1000 dilution of a rabbit anti-hPSA (Cell Signaling, Danvers, MA) primary antibody in Tris-buffered saline (TBS) Tween 20 (TBST) containing 5% non-fat milk. Membranes were washed 3x in TBST for 10 min, then incubated for 1 h at room temperature with a 1:10,000 dilution of the goat anti-rabbit IgG horse radish peroxidase (HRP) conjugated secondary antibody (Invitrogen, Carlsbad, CA) in TBST containing 5% non-fat milk. Western blots were then washed 3x in TBST and developed with Pierce enhanced chemiluminescence (ECL) western blotting substrate (Thermo Fisher Scientific, Waltham, MA). Images of western blot ECL bands were acquired on an iBright 1500 imaging system (Thermo Fisher Scientific, Waltham, MA) and quantified by iBright image analysis software.

[3] = test system: PC cell lines positive (LNCaP, C4–2, & 22Rv1 cells) or negative (PC-3 & DU-145) for AR; assay: Prostate cancer cell line growth inhibition assays, panel statements; type: cell-based; conditions: ALL5; all 5 PC cell lines; 72 h; ≥50% growth inhibition not achieved at ≤100 μM; read-out: GI50 in any PC cell line
Experimental: (§1) The PC-3, DU-145, LNCaP, C4–2, and 22Rv1 PC cell line growth inhibition assays have been described previously. On day 1, each PC cell line was harvested, counted, and seeded into two 384-well assay plates, a time zero (T0) and a time 72 h (T72) plate. PC cell lines were all seeded at 1000 cells per well in 45 μL of tissue culture media in uncoated white clear bottom 384-well assay plates (VWR, # 82050–076) using a Matrix electronic multichannel pipette (Thermo Fisher Scientific, Waltham, MA) and cultured overnight at 37 °C, 5% CO2, and 95% humidity. On day 2, 25 μL of the Cell Titer Glo (CTG) (Promega Corporation, Madison, WI) detection reagent was dispensed into the wells of the T0 assay plate using a Matrix electronic multichannel pipette, and the RLUs were captured on the SpectraMax M5e (Molecular Devices LLC, Sunnyvale, CA) microtiter plate reader. Also on day 2, 5 μL of compounds were transferred into the test wells of the T72 384-well assay plates which were returned to the incubator for 72 h. Control wells received DMSO alone. On day 5, 25 μL of the CTG detection reagent was dispensed into the wells of the T72 assay plate using a Matrix electronic multichannel pipette, and the RLU’s were captured on the SpectraMax M5e microtiter plate reader platform.
(§2) In 384-well assays, DMSO minimum (n = 32) and maximum (n = 32) plate control wells were utilized to calculate signal-to-background ratios (S:B) and Z’-factor coefficient assay performance quality control statistics, and to normalize the signals of compound treated wells and to represent 0% and 100% respectively. For the 96-well AR-LBD H^3-DHT radioligand binding assay, eight minimum and maximum plate control wells were utilized to normalize the data. For the PC cell line growth inhibition assays we used the DMSO control data from the T0 and T72 assay plates to assess the dynamic range of the T0 to T72 cell growth, and to calculate S:B ratios and Z’-factor coefficient statistics for the assay signal window (T0 to T72). To normalize the 72 h compound exposure PC growth inhibition data, the signals from the compound treated wells were processed and expressed as% of the T72 DMSO plate controls. IC50 and GI50 values for each of the bioassays were calculated using Graph-Pad Prism 9 software to plot and fit data to curves using the Sigmoidal dose response variable slope equation Y = Bottom + [Top-Bottom]/ [1 + 10^^(LogEC50-X)*HillSlope].

22Rv1 cells = assay: Prostate cancer cell line growth inhibition assay, 22Rv1; type: cell-based; conditions: Homo sapiens, 22Rv1, 72 h; read-out: 22Rv1 GI50 (AR+)
Experimental: as §1, §2

AR-TIF2 PPI [4] = molecular target: T1, AR-TIF2 PPI (Homo sapiens, UniProt P10275); assay: AR-TIF2 PPI biosensor (PPIB) HCS assay, disruption of pre-formed AR-TIF2 PPI complexes; type: cell-based; conditions: U-2 OS cells; 25 nM DHT 90 min prior to compounds for 3 h
T1 construct: expressed in transfected cells; host or cells: U-2 OS osteosarcoma cells, co-infected with recombinant adenoviruses
T1 sequence (P10275 663-920 limits assumed): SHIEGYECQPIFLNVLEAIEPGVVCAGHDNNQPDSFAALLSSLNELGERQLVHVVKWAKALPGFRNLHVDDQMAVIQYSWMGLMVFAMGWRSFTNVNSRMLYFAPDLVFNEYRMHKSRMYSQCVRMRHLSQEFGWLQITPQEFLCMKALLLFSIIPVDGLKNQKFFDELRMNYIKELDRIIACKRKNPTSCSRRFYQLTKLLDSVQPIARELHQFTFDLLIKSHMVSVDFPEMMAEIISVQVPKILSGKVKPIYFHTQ
Experimental: (§3) Daughter plates containing 2 μL of the serially diluted compounds in DMSO were prepared and replicated from 384-well serial dilution master plates using a Janus MDT platform outfitted with a 384-well transfer head. Aluminum adhesive plate seals were applied, and plates were stored at −20 °C. For bioassay testing, daughter plates were withdrawn from −20 °C storage, thawed to ambient temperature, and centrifuged for 1 min at 100 × g, and plate seals were removed before 38 μL of serum-free media (SFM) was transferred into wells using a Matrix pipettor (ThermoFisher, Waltham, MA), to generate an intermediate stock concentration of validation compounds ranging from 0.977 to 500 μM (5.0% DMSO). Diluted compounds were mixed by repeated aspiration and dispensation using a 384-well P30 dispensing head on the Janus MDT platform and then, 5 μL of diluted compounds was transferred to assay plate wells to provide a final concentration range from 0.0977 to 50 μM (0.5% DMSO).
(§4) The AR-TIF2 PPIB HCS assay was performed in U-2 OS osteosarcoma cells as described previously. Briefly, U-2 OS cells were coinfected with recombinant adenovirus biosensor expression constructs and seeded at 2500 cells per well in 384-well collagen-coated microplates (Greiner BioOne #781956) and plates were incubated overnight at 37°C in 5% CO2 and 95% humidity. […] After the appropriate time, assay plates were fixed by transfer of 50 μL of pre-warmed (37°C) 7.4% formaldehyde and 2 μg/mL Hoechst 33342 in PBS and incubation at room temperature for 30 min. Liquid was aspirated, plates were washed twice with 85 μL PBS, leaving the final wash in the plate. Plates were sealed with adhesive aluminum plate seals, and fluorescent images of three fields of view were acquired in the DAPI (Hoechst stained nuclei), FITC (TIF2-GFP) and Texas Red (AR-RFP) channels on an ImageXpress Micro (IXM) automated HCS platform (Molecular Devices LLC, Sunnyvale, CA) using a 10X Plan Fluor 0.3 NA objective. Images were analyzed using the Translocation Enhanced (TE) image analysis module of the MetaXpress software as described previously.
as §2

DU-145 cells = assay: Prostate cancer cell line growth inhibition assay, DU-145; type: cell-based; conditions: Homo sapiens, DU-145, 72 h; read-out: DU145 GI50 (AR−)
Experimental: as §1, §2

PC-3 cells = assay: Prostate cancer cell line growth inhibition assay, PC-3; type: cell-based; conditions: Homo sapiens, PC-3, 72 h, read-out: PC3 GI50 (AR−)
Experimental: as §1, §2

U-2 OS cells = assay: AR-TIF2 PPIB cell loss (Hoechst stained nuclei); type: cell-based; conditions: 4.5 h compound exposure
Experimental: as §4

C4–2 cells = assay: Prostate cancer cell line growth inhibition assay, C4–2; type: cell-based; conditions: C4-2, 72 h; read-out: C4–2 GI50 (AR +)
Experimental: as §1, §2

LNCaP cells = assay: Prostate cancer cell line growth inhibition assay, LNCaP; type: cell-based; conditions: Homo sapiens, LNCaP, 72 h; read-out: LNCap GI50 (AR+)
Experimental: as §1, §2

AR-TIF2 PPI [5] = molecular target: T1, AR-TIF2 PPI; assay: AR-TIF2 PPI biosensor (PPIB) HCS assay, inhibition of DHT-induced AR-TIF2 PPI formation; type: cell-based; conditions: U-2 OS cells; compounds 3 h prior to 25 nM DHT for 90 min
Experimental: as §3, §4, §2

[6] = test system: LNCaP mouse xenograft models; conditions: cited from earlier work

## C[C@]12CCC(=O)C[C@@H]1CC[C@@H]1[C@@H]2CC[C@]2(C)[C@@H](O)CC[C@@H]12 [DHT, 5α-dihydrotestosterone, reference compound]
PSA [1]
  Increase of PSA levels in conditioned media over untreated controls: 2.4 fold
PSA [2]; 10 nM DHT 24 h
  Increase of PSA levels in cells over untreated controls: 12.3 fold and 11.4 fold

## Cc1nsc(NC(=O)N2CCC(N3CCCC3=O)CC2)n1 [S2–9]
[3]
  GI50: > 100 µM
22Rv1 cells
  GI50: > 100 µM
AR-TIF2 PPI [4]
  IC50: > 100 µM
DU-145 cells
  GI50: > 100 µM
PC-3 cells
  GI50: > 100 µM
U-2 OS cells
  AR-TIF2 PPIB Cell Loss: >100 µM
C4–2 cells
  GI50: > 100 µM
LNCaP cells
  GI50: > 100 µM
AR-TIF2 PPI [5]
  IC50: > 100 µM

## Cc1nsc(NC(=O)N2CCC(F)CC2)n1 [S2–10]
[3]
  GI50: > 100 µM
22Rv1 cells
  GI50: > 100 µM
DU-145 cells
  GI50: > 100 µM
PC-3 cells
  GI50: > 100 µM
U-2 OS cells
  AR-TIF2 PPIB Cell Loss: >100 µM
C4–2 cells
  GI50: > 100 µM
LNCaP cells
  GI50: > 100 µM

## Cc1c(-c2ccccc2F)[nH]c2ccc(CNC(=O)c3cc[nH]n3)cc12 [S3–16]
AR-TIF2 PPI [5]
  IC50: 28.8 µM

## Cc1c(-c2ccccc2F)[nH]c2ccc(CNC(=O)CCC3=NNC(=O)CC3)cc12 [S3–18]
AR-TIF2 PPI [4]
  IC50: > 100 µM
AR-TIF2 PPI [5]
  IC50: 39.6 µM

## Cc1c(-c2ccccc2F)[nH]c2ccc(CNC(=O)Cc3cccnc3)cc12 [S3–19]
AR-TIF2 PPI [4]
  IC50: > 100 µM
AR-TIF2 PPI [5]
  IC50: 68.5 µM

## CCc1[nH]c2c(CNC(=O)CCCc3cn[nH]c3)cc(F)cc2c1C [S3–25]
AR-TIF2 PPI [5]
  IC50: 77.1 µM

## Cc1cccc2c(-c3ccc4ccccc4n3)c[nH]c12 [VPC-13566, 2-(7-methyl-1H-indol-3-yl) quinoline]
[6]
  CRPC tumor growth and serum PSA levels: reduced CRPC tumor growth and serum PSA levels

## CC(C)NC(=O)c1cccc2nc(-c3cn(COP(=O)([O-])[O-])c4c(F)c(F)c(F)cc34)ccc12.[Na+].[Na+] [VPC-13822]
[6]
  PSA production and CRPC tumor volume: reduced PSA production and CRPC tumor volume
[6]; mouse, in vivo
  Toxicity in xenograft models: no observable toxicity

## CNC(=O)c1ccc(N2C(=S)N(c3ccc(C#N)c(C(F)(F)F)c3)C(=O)C2(C)C)cc1F [enzalutamide, reference compound]
PSA [2]; 25 μM for 3 h prior to 10 nM DHT, 24 h
  Reduction of DHT-enhanced PSA expression levels: 7.5 fold
PSA [2]; 25 μM for 3 h prior to media, 24 h
  Reduction of endogenous PSA expression levels: 3.3 fold
